Laboratory results as given in article PMC4981864, “Novel pH-Sensitive Cyclic Peptides” (Scientific Reports, 2016).
Ends that are not written are not given here. Peptide text beside a SMILES is read from it.

Tests used:
[1] = format: physicochemical; details: pH 8
Procedure: (§1) Large unilamellar vesicles (LUVs) were prepared by extrusion. POPC, 1-palmitoyl-2-oleoyl-sn-glycero-3-phosphocholine (Avanti Polar Lipids), or a mixture of POPC with 0.5% of 18:1 NBD-PE, 1,2-dioleoyl-sn-glycero-3-phosphoethanolamine-N-7-nitro-2-1,3-benzoxadiazol-4-yl ammonium salt (Avanti Polar Lipids) were dissolved in chloroform, desolvated on a rotary evaporator, and dried under high vacuum for several hours. The phospholipid film was then rehydrated in 10 mM phosphate buffer pH 8.0, vortexed until the lipid bilayer was completely dissolved, and repeatedly (15–21 times) extruded through the membranes with 50 nm pore sizes to obtain LUVs.
pH-dependent partitioning of the peptides into a lipid bilayer of the membrane was investigated by the shift of the position of the fluorescence spectral maximum for the peptides in the presence POPC liposomes induced by a drop of pH from 8 to 2.5 by the addition of HCl. The peptides were incubated overnight with 50-nm POPC liposomes (final concentration of the peptides and POPC in solution was 5 μM and 1 mM, respectively), and pH decrease was achieved by the addition of aliquots of 4, 2, 1 and 0.1 M HCl. pH was measured by micro-electrode probe (Thermo Electron Corporation, Orion Ross Micro pH electrode). Fluorescence spectra were recorded at each pH value. The spectra were analyzed by the decomposition algorithms using on-line PFAST toolkit[47] (Protein Fluorescence and Structural Toolkit: http://pfast.phys.uri.edu/) to establish the position of the emission maximum. Finally, the positions of the fluorescence spectral maxima (λmax) were plotted versus pH, and the Henderson–Hasselbalch equation was used to fit the data (using Origin 8.5 software): […]
where [drawing 3] and [drawing 4] are the beginning and the end of the transition, respectively, and pKa – is the midpoint of the transition.

[2] = Steady-state tryptophan fluorescence and CD with and without POPC liposomes; format: physicochemical; details: for maximum position of the fluorescence spectrum λmax, Pep, pH8: peptide in phosphate buffer pH 8, no liposomes; for maximum position of the fluorescence spectrum λmax, Pep, pH8 / maximum position of the fluorescence spectrum λmax, Pep-PC, pH3 / maximum position of the fluorescence spectrum λmax, Pep-PC, pH8: 5 μM peptide, excitation 280 nm, 25 °C; for maximum position of the fluorescence spectrum λmax, Pep-PC, pH3 / S, normalized area under the spectra, Pep-PC, pH3: with POPC liposomes pH 3; for maximum position of the fluorescence spectrum λmax, Pep-PC, pH3 / maximum position of the fluorescence spectrum λmax, Pep-PC, pH8: 1.25 mM lipids; for S, normalized area under the spectra, Pep-PC, pH3 / S, normalized area under the spectra, Pep-PC, pH8: normalized on area for peptide at pH 8 in absence of POPC; for maximum position of the fluorescence spectrum λmax, Pep-PC, pH8 / S, normalized area under the spectra, Pep-PC, pH8: with POPC liposomes pH 8
Procedure: as §1
Freshly prepared peptides and POPC vesicles were mixed to have 5 μM of a peptide and 1.25 mM of lipids in the final solution. Steady-state fluorescence measurements were carried out on a PC1 spectrofluorometer (ISS, Inc.) under temperature control at 25 °C. Tryptophan fluorescence was excited at 280 nm (there is no Phe or Tyr in the peptides) and recorded with the excitation and emission slits set at 1 nm. The polarizers in the excitation and emission paths were set at the “magic” angle (54.7° from the vertical orientation) and vertically (0°), respectively. Steady state CD measurements were carried out in MOS 450 spectropolarimeter (Bio-Logic, Inc.) with the same concentrations of peptide and lipids used in fluorescence measurements.

[3] = Dual quenching assay (acrylamide / 10-DN); format: physicochemical; details: 7 μM peptide, 2.1 mM POPC; for percentage of fluorescence quenching, Pep-PC+AC pH3 / percentage of fluorescence quenching, Pep-PC+AC pH8: 235 mM acrylamide; for percentage of fluorescence quenching, Pep-PC+AC pH3 / percentage of fluorescence quenching, Pep-PC+10-DN pH3: pH 3; for percentage of fluorescence quenching, Pep-PC+AC pH8 / percentage of fluorescence quenching, Pep-PC+10-DN pH8: pH 8; for percentage of fluorescence quenching, Pep-PC+10-DN pH3 / percentage of fluorescence quenching, Pep-PC+10-DN pH8: 10% of lipids replaced by 10-DN
Source text: To establish localization of the peptides within a lipid bilayer of membrane, dual quenching assay[28] was employed (Fig. 3 and Table S3). Effective quenching of fluorescence by acrylamide would occur only for tryptophan residues exposed to polar parts of the outer or inner leaflets of the bilayer. At the same time, tryptophan residues located in the middle of a membrane would be effectively quenched by 10-DN. The result of the dual quenching assay allows establishing if tryptophan residues were located in the middle of a membrane or close to the polar headgroups of the bilayer. […] Therefore, we also performed Förster resonance energy transfer (FRET) assay[29] (Fig. 4). First, symmetrically-labelled by NBD dye, POPC liposomes were prepared. Then, membrane-impermeable dithionite was used to chemically modify exposed NBD, which led to the quenching of NBD fluorescence. Thus, NBD dyes located at the outer leaflet of the bilayer were deactivated and excess of dithionite was removed by gel filtration. As a result, asymmetrically-labelled liposomes with active NBD at the inner leaflet were obtained. FRET was monitored from tryptophan residues of the peptides to NBD. Energy transfer might occur only when both fluorophores are in proximity to each other (within 5–15 Å). Thus, when tryptophan residues located at the outer leaflet of the bilayer no significant energy transfer to NBD at the inner leaflet would occur (the distance is about 50–60 Å). […] All other peptides were located at the outer leaflet of the bilayer at pH 8. Drop of pH promoted partitioning of all cyclic peptides into bilayer, which highest FRET for the c[E4W5C] at pH 3.
POPC liposomes without and with 10% of the lipids replaced by 10-doxylnonadecane (10-DN) (Avanti Polar Lipids) were prepared in 10 mM citrate-phosphate buffer pH 8.0. Peptides and POPC liposomes were mixed to generate final concentrations of 7 μM peptide and 2.1 mM POPC without and with 10-DN. […] Quencher, acrylamide (Sigma-Aldrich), was added to the samples of POPC liposomes containing no 10-DN, to have final concentration of 235 mM acrylamide. Concentration of peptides in all samples was kept constant. To observe quenching of tryptophan fluorescence by 10-DN or acrylamide, the tryptophan fluorescence was recorded as described above. The appropriate POPC blanks were measured and subtracted from the measured spectra before analysis. The percentage of quenching was calculated.

HeLa cells = details: concentrations used in this study, treatment of 2-4 hours; cited from earlier work
Procedure: Symmetric, c[(WE)4WC], and asymmetric, c[E4W5C], cyclic peptides were evaluated for their ability to move polar cargo across the membrane. The experiments on live cells were performed at physiologically relevant pHs, such as pH 7.4 (extracellular pH of normal cells) and pH 6.0 (extracellular pH in the vicinity of cancer cells[12]). As a polar cargo, we used amanitin, which is a cell-impermeable cyclic p ...

Compound	apparent pK (pKa) of peptide's partitioning into the bilayer [1]	maximum position of the fluorescence spectrum λmax, Pep, pH8 [2] [nm]	maximum position of the fluorescence spectrum λmax, Pep-PC, pH3 [2] [nm]	S, normalized area under the spectra, Pep-PC, pH3 [2]	maximum position of the fluorescence spectrum λmax, Pep-PC, pH8 [2] [nm]	S, normalized area under the spectra, Pep-PC, pH8 [2]	percentage of fluorescence quenching, Pep-PC+AC pH3 [3] [%]	percentage of fluorescence quenching, Pep-PC+AC pH8 [3] [%]	percentage of fluorescence quenching, Pep-PC+10-DN pH3 [3] [%]	percentage of fluorescence quenching, Pep-PC+10-DN pH8 [3] [%]	pH-dependent interaction with / partitioning into the lipid bilayer of membrane ([2]; fluorescence and CD, POPC liposomes, pH 8 and pH 3)	cell death by amanitin alone (HeLa cells)
O=C(O)CC[C@@H]1NC(=O)[C@H](Cc2c[nH]c3ccccc23)NC(=O)[C@H](CS)NC(=O)[C@H](Cc2c[nH]c3ccccc23)NC(=O)[C@H](CCC(=O)O)NC(=O)[C@H](Cc2c[nH]c3ccccc23)NC(=O)[C@H](CCC(=O)O)NC(=O)[C@H](Cc2c[nH]c3ccccc23)NC(=O)[C@H](CCC(=O)O)NC(=O)[C@H](Cc2c[nH]c3ccccc23)NC(=O)[C@H](CCC(=O)O)NC(=O)[C@H](Cc2c[nH]c3ccccc23)NC1=O [c[(WE)5WC]] (cyclo(CWEWEWEWEWEW))	6.3	350.3±0.2	341.2±0.4	2.1±0.3	346.7±1.2	1.5±0.3	68	78	40	13		
N=C(N)NCCC[C@@H]1NC(=O)[C@H](CS)NC(=O)[C@H](Cc2c[nH]c3ccccc23)NC(=O)[C@H](Cc2c[nH]c3ccccc23)NC(=O)[C@H](Cc2c[nH]c3ccccc23)NC(=O)[C@H](Cc2c[nH]c3ccccc23)NC(=O)[C@H](Cc2c[nH]c3ccccc23)NC(=O)[C@H](CCCNC(=N)N)NC(=O)[C@H](CCCNC(=N)N)NC(=O)[C@H](CCCNC(=N)N)NC1=O [c[R4W5C]]											does not exhibit pH-dependent changes	
CWEWEWEWEW [l(CW(EW)4)]	5.7											
O=C(O)CC[C@@H]1NC(=O)[C@H](Cc2c[nH]c3ccccc23)NC(=O)[C@H](CS)NC(=O)[C@H](Cc2c[nH]c3ccccc23)NC(=O)[C@H](CCC(=O)O)NC(=O)[C@H](Cc2c[nH]c3ccccc23)NC(=O)[C@H](CCC(=O)O)NC(=O)[C@H](Cc2c[nH]c3ccccc23)NC1=O [c[(WE)3WC]] (cyclo(CWEWEWEW))	6.1	351.0±0.2	341.7±0.2	1.7±0.3	349.1±0.7	0.9±0.1	63	83	47	6		
O=C(O)CC[C@@H]1NC(=O)[C@H](Cc2c[nH]c3ccccc23)NC(=O)[C@H](CS)NC(=O)[C@H](Cc2c[nH]c3ccccc23)NC(=O)[C@H](CCC(=O)O)NC(=O)[C@H](Cc2c[nH]c3ccccc23)NC(=O)[C@H](CCC(=O)O)NC(=O)[C@H](Cc2c[nH]c3ccccc23)NC(=O)[C@H](CCC(=O)O)NC(=O)[C@H](Cc2c[nH]c3ccccc23)NC1=O [c[(WE)4WC]] (cyclo(CWEWEWEWEW))	6.4	350.5±0.2	341.1±0.9	1.6±0.2	347.5±1.2	1.1±0.1	50	82	40	11		
CC(C)C[C@@H]1NC(=O)[C@H](CS)NC(=O)[C@H](Cc2c[nH]c3ccccc23)NC(=O)[C@H](CCC(=O)O)NC(=O)[C@H](CC(C)C)NC(=O)[C@H](CCC(=O)O)NC(=O)[C@H](CC(C)C)NC(=O)[C@H](CCC(=O)O)NC(=O)[C@H](CC(C)C)NC(=O)[C@H](CCC(=O)O)NC1=O [c[(LE)4WC]] (cyclo(CLELELELEW))	4.7	348.7±0.3	339.6±1.2	1.1±0.1	348.2±0.6	1.1±0.0	59	96	17	0		
alpha-amanitin												does not induce cell death
